Test results reported in patent US20200086049A1, “Kit For Treating or Relieving Pain at Incision Site Following Surgical Procedure” (GENEWEL CO., LTD., priority 2017, published 2020).

Test: precipitation test for drug-containing mixture solutions
Assay type: physicochemical
Conditions: mixture solution containing crosslinked temperature-responsive viscous solution (DDK Gel: poloxamer and crosslinked alginate), FIG. 7
Excerpt: In FIG. 7, DDK Gel means a gel composed of poloxamer and crosslinked alginate.

precipitate formation | Molecule
formed a precipitate | CC(C)Cc1ccc(C(C)C(=O)O)cc1 (centres unmarked) [ibuprofen]
sodium alginate was precipitated | gentamicin
